Assay results from article PMC10825133, “Repurposing proteasome inhibitors for improved treatment of triple-negative breast cancer” (Cell Death Discovery, 2024).
Like-named read-outs stand apart in the source and are kept apart here. Residues, ends and D or L forms follow the SMILES beside them. *: point of attachment. Cbz = O=C(OCc1ccccc1)*

Assays:
HCC38 cells [1] = assay: Resazurin-based cell viability assay, monotherapy drug screen; design: species or system human; AUC: scale not given here; conditions: for AUC: area under the dose response curve, 24 h; for GRmax: drug efficacy at highest tested dose (<0 cytotoxic, 0 cytostatic, >0 partial growth inhibition)
Summary of the method: (§1)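 Cells were seeded at the highest density (tested 1000-16000 cells/well) giving linear growth between days 1 and 3, keeping them in exponential phase over the ~52 h experiment. Viability was read after 4 h at 37 °C with 0.2 mg/ml resazurin added at 10% of medium volume; ex 560/em 615 nm.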

MDA-MB-453 cells = assay: as above; design: species or system human; AUC: scale not given here; conditions: for AUC: area under the dose response curve, 24 h; for GRmax: drug efficacy at highest tested dose (<0 cytotoxic, 0 cytostatic, >0 partial growth inhibition)
Summary of the method: as §1

HCC38 cells [2] = assay: Combination therapy, resazurin viability, SynergyFinder; assay type: cell-based, human
Protocol: (§2) Eighteen pharmaceutical compounds were purchased from Selleckchem (Supplementary Table 2). Stock solutions were prepared using dimethyl sulfoxide (DMSO; Merck), physiological saline (sodium chloride 0.9%) or Milli-Q water, and stored at −80 °C. […] Matched concentration solvent vehicle controls were used for each drug concentration. The drug screens were performed in triplicate and repeated three (monotherapy) or two (combination therapy) times (Fig. 7).
(§3) The optimal seeding density per 96-well was determined for each cell line as previously described. The cells were seeded at a density of 4.0 × 10^3 to 7.5 × 10^3 (cell type dependent) in 96-well clear, flat-bottom microplates (Corning Life Sciences, Sigma-Aldrich) in 100 µl complete culture medium (Supplementary Table 1) and cultured for 24 h. Cell viability was determined using the resazurin assay in untreated cells at the time of plating (t = 0) and treated cells after 24 h drug treatment (Fig. 7). Percentage cell viability was calculated as 100% × (absorbance of treated cells – absorbance of background controls) / (absorbance of matched solvent vehicle controls – absorbance of background controls). The area under the curve (AUC), half-maximal inhibitory concentration (IC50), drug potency (GR50), and drug efficacy (GRmax) were determined for each compound using the GRmetrics (version 1.20.0) package in R. The monotherapy data were evaluated with the IDACombo (version 1.0.2) package in R to predict potential drug combinations (Table 1). SynergyFinder (version 3.2.10) package in R was used to identify synergistic drug combinations.
(§4) Eighteen pharmaceutical compounds were purchased from Selleckchem. […] The solubility of the compound was enhanced by pre-heating the solvent (lukewarm), if necessary. […] The stock solutions were stored at -80°C. […] Matched concentration solvent vehicle controls were used for each drug concentration. The drug screens were performed in triplicate and repeated three times for the monotherapies and twice for the combination treatments. The drug(s) and corresponding controls were plated in 96-well PCR plates (VWR) and stored at -20°C (Fig. 6). The drug plates were thawed, centrifuged (3000 rpm for 30s), and acclimatized to RT before the drugs were added to the cells. New drug plates were prepared for each drug screen.
(§5) The cells were seeded at a density of 4.0x10^3 to 7.5x10^3 (cell type-dependent) in 96-well clear, flat-bottom microplates (Corning Life Sciences, Sigma-Aldrich) in 100 µl culture medium supplemented with 10% FBS and cultured for 24h. Cell viability was determined using the resazurin assay after 24h drug treatment (Fig. 6). Percentage cell viability was calculated as 100% × (absorbance of treated cells – absorbance of background controls) / (absorbance of matched solvent vehicle controls – absorbance of background controls). Normalized growth rate inhibition (GR) was assessed using the absorbance of untreated cells after the time of plating (t = 0). […] For combination treatment, the monotherapy data were evaluated with the IDACombo (version 1.0.2)[20] package in R to predict potential drug combinations (Table 1). SynergyFinder (version 3.2.10)[21] package in R was used to identify synergistic drug combinations.

[3] = tested on: eight TNBC cell lines and two controls (MCF-10A and MCF-7); assay: Monotherapy drug screen, all investigated cell lines; assay type: cell-based, human; conditions: for drug potency classification, below the threshold: GR50 and AUC both below the threshold
Protocol: as §2, §3, §4, §5

[4] = tested on: control cell lines (MCF-10A and MCF-7); assay: Monotherapy drug screen, mean across the controls; assay type: cell-based, human; conditions: for area under the dose response curve (AUC), mean ± SD: 24 h; for IC50: 24 h drug treatment, read-out: GR50 (mean ± SD)
Protocol: as §2, §3, §4, §5

[5] = target: T1, β5 catalytic site of the 20 S proteasome (Homo sapiens, UniProt P28074); assay: Proteasome activity of the β5 catalytic site in MCF-7 cells (Suc-Leu-Leu-Val-Tyr-AMC substrate); assay type: cell-based
T1 construct: endogenous in cells; host or cells: MCF-7
Protocol: Proteasome activity of the β5 catalytic site was determined for the PIs using a Suc-Leu-Leu-Val-Tyr-AMC fluorescent proteasome substrate (Enzo Life Sciences, Cat. BML-P802) at a final concentration of 20 µM. MCF-7 cells were seeded at 7.5 × 10^3 cells/well in black 96-well flat-bottom microplates (Nuclon™ Delta Surface, ThermoFisher Scientific) with 100 µl culture medium supplemented with 10% FBS. After 24 h, the cells were treated for 6 h with the 11 PIs at 1, 10, 100, and 1000 nM and matched untreated controls.

CAL-148 cells = assay: Combination therapy, resazurin viability, SynergyFinder; assay type: cell-based, human
Protocol: as §2, §3, §4, §5

[6] = HCC38, 24 h drug treatment, read-out: IC50
[7] = HCC38, growth rate inhibition concentration at GR(c) = 0.5, 24 h, read-out: GR50 (the source's name)
[8] = Homo sapiens, HCC38, 24 h drug treatment, read-out: IC50
[9] = Homo sapiens, HCC38, growth rate inhibition concentration at GR(c) = 0.5, 24 h, read-out: GR50 (the source's name)
[10] = Homo sapiens, MDA-MB-453, growth rate inhibition concentration at GR(c) = 0.5, 24 h, read-out: GR50 (the source's name)
[11] = metrics GR50 < 1.0 µM and AUC < 0.80
[12] = Homo sapiens, HCC38, 24 h, read-out: GR50 (µM)
[13] = Homo sapiens, MDA-MB-453, 24 h, read-out: GR50 (µM)
[14] = MDA-MB-453, growth rate inhibition concentration at GR(c) = 0.5, 24 h, read-out: GR50 (the source's name)
[15] = Homo sapiens, MDA-MB-453, 24 h drug treatment, read-out: IC50
[16] = MCF7, MCF-7 cells treated 6 h, 10000 nM, read-out: inhibition of β5 activity

Row | SMILES | AUC (HCC38 cells [1]; HCC38) | GRmax (HCC38 cells [1]; HCC38) | AUC (MDA-MB-453 cells; MDA-MB-453) | IC50 (HCC38 cells [1]; [8]) [µM] | IC50 (HCC38 cells [1]; [9]) [µM] | IC50 (MDA-MB-453 cells; [10]) [µM] | drug potency classification [3, 11] | other results
1 | N.N.O=C([O-])C1(C(=O)[O-])CCC1.[Pt+2] [Carboplatin] | 0.88 | 0.03 | 0.98 | – | – | – | – | IC50 (HCC38 cells [1]; [6]): 0.89 µM; IC50 (HCC38 cells [1]; [7]): 0.43 µM; GRmax (MDA-MB-453 cells; MDA-MB-453): 0.79; Inhibition (%) (HCC38 cells [2]; carboplatin 8 µM alone): −3.64%; Inhibition (%) (HCC38 cells [2]; carboplatin 32 µM alone): −1.55%; Inhibition (%) (HCC38 cells [2]; carboplatin 128 µM alone): 0.55%; Inhibition (%) (HCC38 cells [2]; carboplatin 512 µM alone): 11.55%
2 | CC(C)C[C@H](NC(=O)[C@H](CCc1ccccc1)NC(=O)CN1CCOCC1)C(=O)N[C@@H](Cc1ccccc1)C(=O)N[C@@H](CC(C)C)C(=O)[C@@]1(C)CO1 [Carfilzomib] | 0.71 | −0.99 | 0.77 | 0.57 | 0.38 | 0.22 | potent drugs | drug potency classification, below the threshold [3]: highly potent drugs
3 | CC1=C(O)C(=O)C=C2C1=CC=C1[C@@]2(C)CC[C@@]2(C)[C@@H]3C[C@](C)(C(=O)O)CC[C@]3(C)CC[C@]12C [Celastrol] | 0.79 | −0.96 | 0.87 | – | – | – | – | IC50 (HCC38 cells [1]; Homo sapiens, HCC38, 24 h): 1.4 µM; IC50 (HCC38 cells [1]; [12]): 1.2 µM; IC50 (MDA-MB-453 cells; Homo sapiens, MDA-MB-453, 24 h): 3.7 µM; IC50 (MDA-MB-453 cells; [13]): 3.4 µM
4 | N.N.[Cl][Pt][Cl] [Cisplatin] | 0.45 | −0.67 | 0.75 | – | – | – | potent drugs | IC50 (HCC38 cells [1]; [6]): 0.03 µM; IC50 (HCC38 cells [1]; [7]): 0.019 µM; IC50 (MDA-MB-453 cells; MDA-MB-453, 24 h drug treatment, read-out: IC50): 0.24 µM; GRmax (MDA-MB-453 cells; MDA-MB-453): 0.25; IC50 (MDA-MB-453 cells; [14]): 0.095 µM; area under the dose response curve (AUC), mean ± SD [4]: 0.54 ± 0.12
5 | CC(=O)O[C@@]12CO[C@@H]1C[C@H](O)[C@@]1(C)C(=O)[C@H](O)C3=C(C)[C@@H](OC(=O)[C@H](O)[C@@H](NC(=O)OC(C)(C)C)c4ccccc4)C[C@@](O)([C@@H](OC(=O)c4ccccc4)[C@H]21)C3(C)C [Docetaxel] | 0.78 | 0.17 | 0.87 | – | 0.013 | – | potent drugs | IC50 ([4]; Homo sapiens): 7.8 ± 1.3 nM; drug potency classification, below the threshold [3]: highly potent drugs
6 | COc1cccc2c1C(=O)c1c(O)c3c(c(O)c1C2=O)C[C@@](O)(C(=O)CO)C[C@@H]3O[C@H]1C[C@H](N)[C@H](O)[C@H](C)O1 [Doxorubicin] | 0.83 | 0.01 | 0.88 | 2.9 | 0.77 | 4.6 | – | IC50 (MDA-MB-453 cells; [15]): 8.1 µM
7 | COc1cccc2c1C(=O)c1c(O)c3c(c(O)c1C2=O)C[C@@](O)(C(=O)CO)C[C@@H]3O[C@H]1C[C@H](N)[C@@H](O)[C@H](C)O1 [Epirubicin] | 0.81 | −0.03 | 0.90 | 2.3 | 0.69 | 3.2 | – | IC50 (MDA-MB-453 cells; [15]): 5.3 µM
8 | CC[C@H](C)[C@H](NC(=O)[C@H]([C@@H](C)CC)N(C)C(C)=O)C(=O)N[C@H](C(=O)N[C@@H](CC(C)C)C(=O)[C@@]1(C)CO1)[C@@H](C)O [Epoxomicin] | 0.47 | −0.74 | 0.70 | – | – | – | – | IC50 (HCC38 cells [1]; [6]): 0.054 µM; IC50 (HCC38 cells [1]; [7]): 0.044 µM; GRmax (MDA-MB-453 cells; MDA-MB-453): 0.32; IC50 (MDA-MB-453 cells; [14]): 0.015 µM; area under the dose response curve (AUC), mean ± SD [4]: 0.66 ± 0.080; IC50 [4]: 85 ± 10 nM; drug potency classification [3]: potent drugs; drug potency classification, below the threshold [3]: highly potent drugs
9 | CC(C)C[C@@H](C=O)NC(=O)[C@H](CC(C)C)NC(=O)[C@H](CC(C)C)NC(=O)OCc1ccccc1 [MG 132, MG-132] (Cbz-Leu-Leu-Leu-aldehyde) | 0.71 | −0.98 | 0.87 | – | – | – | – | IC50 (HCC38 cells [1]; Homo sapiens, HCC38, 24 h): 0.57 µM; IC50 (HCC38 cells [1]; [12]): 0.37 µM; IC50 (MDA-MB-453 cells; [13]): 1.7 µM; inhibition at 10 µM ([5]; MCF7, read-out: inhibition of β5 activity): 25%
10 | CC(C)C[C@H](NC(=O)CNC(=O)c1cc(Cl)ccc1Cl)B(O)O [MLN 2238, MLN-2238] | 0.59 | −0.99 | 0.81 | 0.11 | 0.071 | 0.64 | potent drugs | IC50 (MDA-MB-453 cells; [15]): 4.3 µM; inhibition at 10 µM [5, 16]: 33%; drug potency classification, below the threshold [3]: highly potent drugs
11 | CC(C)C[C@H](NC(=O)CNC(=O)c1cc(Cl)ccc1Cl)B1OC(=O)C(CC(=O)O)(CC(=O)O)O1 [MLN 9708, MLN-9708] | 0.59 | −0.99 | 0.88 | 0.13 | 0.069 | 1.8 | potent drugs | inhibition at 10 µM [5, 16]: 51%
12 | [NH2][Pt]1([NH2])[O]CC(=O)[O]1 [Nedaplatin] | 0.62 | −0.58 | 0.86 | – | – | – | potent drugs | IC50 (HCC38 cells [1]; [6]): 0.093 µM; IC50 (HCC38 cells [1]; [7]): 0.054 µM; GRmax (MDA-MB-453 cells; MDA-MB-453): 0.34; IC50 (MDA-MB-453 cells; [14]): 0.41 µM; area under the dose response curve (AUC), mean ± SD [4]: 0.70 ± 0.13; Inhibition (%) (CAL-148 cells; nedaplatin 8 µM alone): −9.21%; Inhibition (%) (CAL-148 cells; nedaplatin 32 µM alone): 2.14%; Inhibition (%) (CAL-148 cells; nedaplatin 128 µM alone): 9.01%; Inhibition (%) (CAL-148 cells; nedaplatin 512 µM alone): 49.72%
13 | COC[C@H](NC(=O)c1cnc(C)s1)C(=O)N[C@@H](COC)C(=O)N[C@@H](Cc1ccccc1)C(=O)[C@@]1(C)CO1 [Oprozomib] | 0.73 | −0.98 | 0.84 | 0.68 | 0.33 | 3.5 | – | –
14 | CC(=O)O[C@H]1C(=O)[C@@]2(C)[C@H]([C@H](OC(=O)c3ccccc3)[C@]3(O)C[C@H](OC(=O)[C@H](O)[C@@H](NC(=O)c4ccccc4)c4ccccc4)C(C)=C1C3(C)C)[C@]1(OC(C)=O)CO[C@@H]1C[C@@H]2O [Paclitaxel] | 0.81 | −0.50 | 0.93 | 7.1 | 0.11 | – | – | inhibition at 0.01 µM (HCC38 cells [2]; Homo sapiens, paclitaxel 10 nM alone): -0.18%; inhibition at 0.078 µM (HCC38 cells [2]; Homo sapiens, paclitaxel 78 nM alone): 10.6%; inhibition at 0.625 µM (HCC38 cells [2]; Homo sapiens, paclitaxel 625 nM alone): 21.1%; inhibition at 5 µM (HCC38 cells [2]; Homo sapiens, paclitaxel 5000 nM alone): 24.7%
